pIC50: −log10 of the molar value. One block for each molecule: values may come before it.
Experiments:
Chymase [1] = target: T1, Chymase (Homo sapiens, UniProt P23946); experiment: In vitro inhibitory activity against human chymase; NI Indicates no inhibition at 10 uM
T1 sequence (P23946 whole entry): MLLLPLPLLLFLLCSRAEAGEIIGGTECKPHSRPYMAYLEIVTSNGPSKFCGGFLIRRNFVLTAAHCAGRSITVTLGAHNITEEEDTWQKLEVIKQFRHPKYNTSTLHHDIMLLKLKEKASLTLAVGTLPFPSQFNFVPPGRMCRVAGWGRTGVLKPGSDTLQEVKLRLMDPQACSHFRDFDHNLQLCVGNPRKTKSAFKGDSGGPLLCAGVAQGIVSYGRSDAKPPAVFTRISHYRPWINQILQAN

Chymase [2] = target: T1, Chymase; experiment: In vitro inhibitory activity against human chymase
Cathepsin G = target: T2, Cathepsin G (Homo sapiens, UniProt P08311); experiment: In vitro inhibitory activity against human cathepsin G
T2 sequence (P08311 whole entry): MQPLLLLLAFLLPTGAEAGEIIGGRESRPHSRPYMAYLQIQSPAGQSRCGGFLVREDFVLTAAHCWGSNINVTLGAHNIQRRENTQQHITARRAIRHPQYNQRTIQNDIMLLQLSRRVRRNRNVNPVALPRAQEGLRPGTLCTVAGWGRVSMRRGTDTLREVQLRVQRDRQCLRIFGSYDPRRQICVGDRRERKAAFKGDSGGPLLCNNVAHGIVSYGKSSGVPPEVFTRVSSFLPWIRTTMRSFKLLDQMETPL

Rattus norvegicus = species: Rattus norvegicus; experiment: Percentage of compound present in rat plasma after incubation for 60 min at 37 degree C; type: functional, organism-based
[3] = In vitro inhibitory activity against human elastase

- IC50 (Chymase [1]): No inhibition
Compound: CCCSc1ccc(NS(=O)(=O)c2sc3ccc(Cl)cc3c2C)cc1

- IC50 (Chymase [1]): No inhibition
Compound: Cc1c(S(=O)(=O)Nc2ccc(C#N)cc2)sc2ccc(Cl)cc12

- pIC50 (Chymase [2]): < 6.00
Compound: Cc1c(S(=O)(=O)Nc2ccc(C(N)=O)cc2S(C)(=O)=O)sc2ccc(F)cc12

- pIC50 (Chymase [2]): 6.49
Compound: COC(=O)c1ccc(NS(=O)(=O)c2sc3ccc(C)cc3c2C)c(S(C)(=O)=O)c1

- pIC50 (Chymase [2]): 6.47
Compound: Cc1c(S(=O)(=O)Nc2ccc(CO)cc2S(C)(=O)=O)sc2ccc(F)cc12

- pIC50 (Chymase [2]): 6.72
Compound: COCc1ccc(NS(=O)(=O)c2sc3ccc(F)cc3c2C)c(S(C)(=O)=O)c1

- pIC50 (Chymase [2]): < 6.00
Compound: Cc1c(S(=O)(=O)Nc2ccc(C=O)cc2S(C)(=O)=O)sc2ccc(F)cc12

- pIC50 (Cathepsin G): < 5.00
- pIC50 [3]: < 5.00
Compound: COC(=O)c1ccc(NS(=O)(=O)c2sc3ccc(F)cc3c2C)c(S(C)(=O)=O)c1
- Stability (Rattus norvegicus): 74.3%

- pIC50 (Chymase [2]): 6.23
Compound: COC(=O)c1ccc(NS(=O)(=O)c2sc3ccc(Cl)cc3c2C)c(S(C)(=O)=O)c1C

- pIC50 (Chymase [2]): < 6.00
Compound: Cc1c(S(=O)(=O)Nc2ccc(C(=O)O)cc2S(C)(=O)=O)sc2ccc(F)cc12

- pIC50 (Chymase [2]): 4.97
Compound: CCCS(=O)(=O)c1ccc(NS(=O)(=O)c2sc3ccc(Cl)cc3c2C)cc1

- IC50 (Chymase [1]): No inhibition
Compound: Cc1c(S(=O)(=O)Nc2ccc([N+](=O)[O-])cc2)sc2ccc(Cl)cc12

- pIC50 (Cathepsin G): < 5.00
- pIC50 [3]: < 5.00
Compound: COC(=O)c1ccc(NS(=O)(=O)c2sc3ccc(Cl)cc3c2C)c(S(C)(=O)=O)c1
- Stability (Rattus norvegicus): 93.9%

- pIC50 (Cathepsin G): < 5.00
- pIC50 [3]: < 5.00
Compound: CC(=O)c1ccc(NS(=O)(=O)c2sc3ccc(F)cc3c2C)c(S(C)(=O)=O)c1
- Stability (Rattus norvegicus): 96.2%

- IC50 (Chymase [1]): No inhibition
Compound: COC(=O)c1ccc(NS(=O)(=O)c2sc3ccc(Cl)cc3c2C)c(C(=O)OC)c1

From ChEMBL document CHEMBL1136443, “Structure-activity relationship of benzo[b]thiophene-2-sulfonamide derivatives as novel human chymase inhibitors” (Bioorg Med Chem Lett, 2003)
